Source: a melting point compilation (Tetko et al.; mined from patent text by program, amines drawn as free bases though some values may be those of a salt)

Compared with `COc1cc(F)ccc1Oc1c(Cl)nc(-c2ncccn2)nc1NS(=O)(=O)c1ccc(C(C)(C)C)cc1`, `CNC(=O)[C@@H]1C[C@@H](OC(C)(C)C)CN1S(=O)(=O)c1ccc(Cl)c(COc2cccc3c(-n4ccnc4)cc(C)nc23)c1Cl` is lower in melting point: 225 to 227 °C for the first, 84 °C for the second.

First: Cc1cc(C)c(N2c3ccccc3S(=O)(=O)c3cc(C=O)ccc32)c(C)c1
Second: CC1(C)CCC(N2c3ccccc3Oc3ccccc32)=N1
The melting point of the first is higher: 194 to 197 °C for the first, 148 to 150 °C for the second.

Compared with `O=C1NCc2cccn2-c2ccsc21`, `CC1(C)Oc2ccccc2-n2cccc21` is lower in melting point: 191 °C for the first, 38 °C for the second.

First: COC(=O)Nc1ccc(C(=O)N(C)C)c(S(=O)(=O)NC(C)(C)C)c1
Second: CC(C)(C)OC(=O)COc1ccc(C(=O)O)cc1OCC(=O)OC(C)(C)C
The melting point of the first is higher: 184 to 188 °C for the first, 118 to 120 °C for the second.

First: COC(=O)Cn1c(C)ccc1C
Second: COC(=O)c1ccc(SC)cc1N
The melting point of the first is lower: 44 to 46 °C for the first, 57 to 59 °C for the second.

First: O=C(O)CCC(=O)c1ccc(C2CCCCC2)cc1
Second: CCOC(=O)C(=O)N1CCC(Cc2ccc(F)cc2)CC1
The melting point of the first is higher: 140 to 141 °C for the first, 72 to 74 °C for the second.

First: OC1CCN(Cc2ccc(Br)cc2)CC1N1CCC(c2ccccc2)CC1 (stereo unspecified)
Second: O=S1(=O)c2ccccc2C(c2ccccc2)N1CCCl (stereo unspecified)
The melting point of the first is higher: 159 to 161 °C for the first, 121 °C for the second.

Going from `CN(C)c1ccc(C(NC(c2ccccc2)c2ccccc2)P(O)O)cc1` (stereo unspecified) to `O=C(CC(c1ccccc1)c1ccccc1)Nc1ccccc1Cl`, the melting point falls from 205 °C to 181 °C.

First: Nc1nc(F)nc2c1ncn2C1OC(COCc2ccccc2)C(OCc2ccccc2)C1OCc1ccccc1 (stereo unspecified)
Second: CN1CC=C(c2cccc3ccc(N(Cc4ccccc4)Cc4ccccc4)cc23)CC1
The melting point of the first is higher: 157 to 159 °C for the first, 124 to 126 °C for the second.

First: CCCCCNC(=O)CCCCC
Second: CCCCCCCCSCCCN=C=O
The melting point of the first is lower: 37 °C for the first, 84 to 85 °C for the second.

Compared with `COc1ccc2c(-c3ccc(Br)cc3)csc2c1`, `N#CCOc1ccc2cc(-c3cc4ccccc4s3)ccc2c1Br` is higher in melting point: 102 to 104 °C for the first, 179 to 181 °C for the second.

First: CCCC(=O)NN=C(c1ccc(Cl)cc1)c1ccc(OC(F)F)cc1
Second: COC(=O)C(Oc1ccc(C23CC4CC(CC(C4)C2)C3)cc1)c1ccc(Oc2ccc(Cl)cc2)cc1 (stereo unspecified)
The melting point of the first is lower: 114 to 125 °C for the first, 148 to 150 °C for the second.

First: Cc1ccc(C)c(SCCCCCC(=O)O)c1
Second: Cn1c(=O)[nH]c2nc3ccc(OCCCCC(=O)O)cc3cc21
The melting point of the first is lower: 61 to 62 °C for the first, 311 to 313 °C for the second.

First: O=C(O)C=Cc1cn(CC(C(=O)c2ccc(Cl)cc2Cl)c2ccccc2)cn1 (stereo unspecified)
Second: CC(=O)SCC(Cc1ccccc1)C(=O)Nc1c(Cl)cccc1C(=O)O (stereo unspecified)
The melting point of the first is higher: 229 to 231 °C for the first, 123 to 127 °C for the second.

First: CC(=O)OCCCc1cc(C=C2SC(=S)N(C)C2=O)cc(CCCOC(C)=O)c1O
Second: CC(=O)c1ccc2c(c1)Sc1cc(C(C)=O)c(Cl)cc1N2C
The melting point of the first is lower: 151 to 155 °C for the first, 185 °C for the second.

First: CCNC(=O)C(C)NC(=O)OCc1ccccc1 (stereo unspecified)
Second: CCOC(=O)C(Cc1ccccc1)CP(=O)(OCC)OCC (stereo unspecified)
The melting point of the first is higher: 116 to 117 °C for the first, 58 to 72 °C for the second.

First: COC(=O)C1C(NC(C)=O)CC(=O)OC1C (stereo unspecified)
Second: CCOC(=O)C1C2CCC(=O)C21 (stereo unspecified)
The melting point of the first is higher: 135 to 136 °C for the first, 36 to 38 °C for the second.

First: O=C(Oc1ccc(C(=O)OCc2ccccc2)cc1)C(=O)Oc1ccc(C(=O)OCc2ccccc2)cc1
Second: NS(=O)(=O)c1cc(C(=O)O)cc(OCc2ccccc2)c1Cc1ccccc1
The melting point of the first is lower: 106 to 108 °C for the first, 250 to 251 °C for the second.

Compared with `CN1C=C2C=C(S)N=CN2N1`, `CC(C)c1nn2ccccc2c1C=O` is lower in melting point: > 300 °C for the first, 81 to 81.5 °C for the second.

`CC(C)n1nc(-c2c(-c3ccccc3)nc(N)nc2N(C)Cc2ccccc2)ccc1=O` and `O=C1CCCCC1n1nc(-c2c(-c3ccccc3)nn3ccccc23)ccc1=O` (stereo unspecified) cannot be ordered by melting point: 167 to 168 °C for the first, 166 to 168 °C for the second.

First: Cc1c[nH]n(Cc2ccc(Cl)c(Cl)c2)c1=O
Second: CN(CCN(O)C(N)=O)Cc1cccc(Oc2ccc(Cl)c(Cl)c2)c1
The melting point of the first is higher: 156 °C for the first, 107 to 109 °C for the second.

First: O=C(OC(Cc1c[nH]cn1)C(=O)O)C(Cc1ccccc1)Cc1ccccc1 (stereo unspecified)
Second: CCCc1ccccc1Sc1c(O)cc(-c2ccccc2)oc1=O
The melting point of the first is higher: 210 °C for the first, 158 to 160 °C for the second.

First: COc1ccnc(Nc2nc(-c3cc(-c4ccccc4)no3)cs2)c1
Second: Cc1cc(-c2ccccc2)nc2nc(N)ccc12
The melting point of the first is lower: 177 to 179 °C for the first, 253 to 255 °C for the second.

First: O=c1c2ccc(O)cc2oc2c1oc1ccccc12
Second: CS(=O)(=O)Nc1cc2oc(Br)c(NC=O)c(=O)c2cc1Oc1ccccc1
The melting point of the first is higher: > 300 °C for the first, 237 to 238 °C for the second.

First: N#Cc1ccc2cc(CCCCc3cc4ccc(C#N)cc4o3)oc2c1
Second: Cc1nnc(-c2ccc3occ(-c4cccc(F)c4)c3c2)o1
The melting point of the first is higher: 215 to 217 °C for the first, 138 to 139 °C for the second.

First: CC(=O)SC[C@@H](C)C(=O)N1C(=O)N(C)C[C@H]1C(=O)OC(C)(C)C
Second: CC(C)(C)OC(=O)[C@@H]1CCC(=S)N1Cc1ccccc1
The melting point of the first is higher: 104 °C for the first, 72 to 78 °C for the second.

Compared with `OCc1cc(-c2ccc(Cl)cc2)on1`, `COc1cc(Sc2ccccc2CO)ccc1Cl` is lower in melting point: 93 to 95 °C for the first, 78 to 80 °C for the second.

First: NS(=O)(=O)C12CC3CC(CC(C3)C1)C2
Second: CCOC(=O)c1cccc(NC(=O)NC2C(=O)N(CC34CC5CC(CC(C5)C3)C4)c3ccccc3N(c3ccccc3)C2=O)c1 (stereo unspecified)
The melting point of the first is lower: 191 to 193 °C for the first, 220 to 221 °C for the second.

First: COc1ccc(-c2[nH]nc3c2C(=O)c2c(NC(=O)Cc4cccc(OC)c4)cccc2-3)cc1
Second: COc1ccc(CCc2oc3cccc(OC(C)=O)c3c2C)cc1
The melting point of the first is higher: > 300 °C for the first, 66 to 69 °C for the second.

First: COCc1cc(-c2ccccc2N)[nH]n1
Second: O=C1COc2cc(SCc3ccccc3)ccc2N1
The melting point of the first is lower: 74 to 78 °C for the first, 153 to 154 °C for the second.

Compared with `Cc1nc2c(N)nc3cc(OCc4ccccc4)ccc3c2n1CC(C)C`, `CC(C)c1ccc2c(c1)c(S(=O)(=O)c1ccccc1)c(CC(C)(C)C(=O)O)n2Cc1ccc(N)cc1` is higher in melting point: 172 °C for the first, 290 °C for the second.

First: CCOC(=O)C1=C(N)NC2=C(C(=O)CCC2)C1c1cccc(C#N)c1 (stereo unspecified)
Second: CCOC(=O)CN(CC1CC2c3cccc4[nH]cc(c34)CC2N(C)C1)C(=O)NC(C)C (stereo unspecified)
The melting point of the first is higher: 262 °C for the first, 118 to 120 °C for the second.

First: OC1CCSC(=S)N1c1ccc(Cl)cn1 (stereo unspecified)
Second: CC1Cc2c(N)ccc(Cl)c2O1 (stereo unspecified)
The melting point of the first is higher: 136 to 137 °C for the first, 70 °C for the second.

Compared with `CS(=O)(=O)NCCCOS(C)(=O)=O`, `CCc1cc(=O)n(CCC(C(=O)NO)N(C)S(=O)(=O)c2ccc(Oc3ccccc3)cc2)c(=O)[nH]1` (stereo unspecified) is higher in melting point: 53.5 to 55.5 °C for the first, 177 to 179 °C for the second.

First: CC1=C(C(=O)OC(C)(C)C)C(c2cccc(F)c2F)C(C(=O)OC(C)(C)C)=C(C)N1
Second: CCOC(=O)c1cn(CC)c2nc3cc(F)c(F)cc3cc2c1=O
The melting point of the first is lower: 192 to 194 °C for the first, 270 °C for the second.

First: CCOc1cc2c(Nc3cc(OC)c(Cl)cc3Cl)c(C#N)cnc2cc1OCCN1CCN(C)CC1
Second: Nc1ccc(OCCN2CCN(c3nsc4ccccc34)CC2)cc1
The melting point of the first is higher: 141 to 143 °C for the first, 128 °C for the second.

First: C=CCOC(=O)Nc1ccc(C2=NNC(=O)CC2C)cc1 (stereo unspecified)
Second: CC(=N)NC(=O)Nc1ccc(C)cc1
The melting point of the first is lower: 206 to 207 °C for the first, 210 to 212 °C for the second.

First: CC(C)c1nc2cc(COc3ccc(CC4OC(=O)N(C(c5ccccc5)(c5ccccc5)c5ccccc5)C4=O)cc3)ccc2o1 (stereo unspecified)
Second: ICCOc1ccc(C2=C(c3ccccc3)CCCc3cc(OC4CCCCO4)ccc32)cc1 (stereo unspecified)
The melting point of the first is lower: 123 to 125 °C for the first, 165 to 166 °C for the second.

Compared with `O=C1COc2cc3c(cc21)C1(CO3)C(=O)N(CC2CCCO2)c2ccccc21` (stereo unspecified), `O=c1[nH]c2c(c(=O)n1CCCN1CCN(c3ccccc3OCC(F)(F)F)CC1)CCCC2` is higher in melting point: 142 to 144 °C for the first, 148 to 150 °C for the second.

`COc1cccc(-n2c3c(c(=O)c4cccnc42)CC(CBr)O3)c1` (stereo unspecified) and `CCCN1N=C2C(=Cc3ccc(OC)cc3)CS(=O)(=O)CC2C1c1ccc(OC)cc1` (stereo unspecified) cannot be ordered by melting point: 196 to 198 °C for the first, 195 to 198 °C for the second.

First: CC1(C)OC(=S)Nc2ccc(-c3cc(F)cc(F)c3)cc21
Second: CC(C)n1nc(-c2cnc(N)nc2-c2ccc(Cl)c(Cl)c2)ccc1=O
The melting point of the first is higher: 224 to 225 °C for the first, 176 °C for the second.

First: COC1C=C(C)C(=O)CC(C)(C)C1OC(=O)c1ccc([N+](=O)[O-])cc1[N+](=O)[O-] (stereo unspecified)
Second: CC(C)c1cc(OCC(=O)O)cc2c1C(=O)N(COC(=O)c1c(Cl)cccc1Cl)S2(=O)=O
The melting point of the first is higher: 148 to 149 °C for the first, 136 to 137 °C for the second.

First: CCCCCCCCCCCCCCCCC(O)CN(C)CCO (stereo unspecified)
Second: CCCCCCCCCCCCS(=O)c1c(O)cc(C)oc1=O (stereo unspecified)
The melting point of the first is lower: 39 to 40.6 °C for the first, 80 °C for the second.

Compared with `O=C(OCc1ccccc1[N+](=O)[O-])C(F)(F)C(F)(F)C(F)(F)C(F)(F)C(F)(F)C(F)(F)C(F)(F)F`, `O=S(=O)(c1ccc(O)cc1)c1ccccn1` is higher in melting point: 34 to 35 °C for the first, 148 °C for the second.

First: Nc1ccc(CCCO)cc1
Second: NC(=NC(=O)c1nc(Cl)c(N)nc1N)NCCCCc1ccc(OCC(=O)Nc2ccccc2)cc1
The melting point of the first is lower: 54 to 56 °C for the first, 168 to 170 °C for the second.

Compared with `C=CCOC(=O)c1cnn(-c2c(Cl)cc(Br)cc2Cl)c1N`, `CC(C)(C)c1ccc(C(=O)Nc2cn3nc(N)ccc3n2)cc1` is higher in melting point: 85 °C for the first, 267 to 268 °C for the second.

Compared with `COc1cccc(NC(=O)NC2N=C(c3ccccc3F)c3cccc(C)c3N(CC(=O)N3CC4CCC(CC4)C3)C2=O)c1` (stereo unspecified), `CC(C)(C)OC(=O)NCC(=O)Nc1cccc(NC(=O)C(=O)N2CCC(Cc3ccccc3)CC2)c1` is lower in melting point: 241 to 243 °C for the first, 81 to 85 °C for the second.

First: CCC(=O)NCCC1=C(C(C)C)Cc2cnc3c(c21)CCO3
Second: CC(C)[C@H](NS(=O)(=O)c1ccc2c(c1)Sc1ccccc1O2)C(=O)O
The melting point of the first is lower: 168 to 170 °C for the first, 171 to 175 °C for the second.

First: Cc1cccc(CC(=S)Nc2ccccc2C(=O)O)c1
Second: O=C1c2c(O)cccc2C(SCCO)c2cccc(O)c21
The melting point of the first is higher: 148 to 150 °C for the first, 146 to 147 °C for the second.

First: Cc1ccc(C(=O)Nc2ccc(CN3CCCCC3)c(C(F)(F)F)c2)cc1-c1ccc2cnncc2c1
Second: O=C1CCC(N2C(=O)c3ccc(CNC(=O)c4ccc(SC(F)(F)F)cc4)cc3C2=O)C(=O)N1 (stereo unspecified)
The melting point of the first is higher: 194 to 195 °C for the first, 171 to 173 °C for the second.

Work on `N#Cc1ccc(NC(=O)c2cc3cccc(S(=O)(=O)c4ccccc4)c3[nH]2)c(-c2nnn[nH]2)c1` yielded a melting point of 293 to 295 °C.
